The values below come from article PMC8724251, “A Supramolecular Nanoparticle of Pemetrexed Improves the Anti-Tumor Effect by Inhibiting Mitochondrial Energy Metabolism” (Frontiers in Bioengineering and Biotechnology, 2021).

Read-outs that look alike come from different tables or passages of the source. Square brackets hold non-standard residues; d marks the D form. Ends that are not written are not given here. Peptide text beside a SMILES is read from it. * marks the point of attachment. ξ: configuration not given here. X1 = Nc1nc2[nH]cc(CCc3ccc(C(=O)*)cc3)c2c(=O)[nH]1; ξE = NC(CCC(=O)O)C(=O)O

The subject of data set [1] is LLC cells. The data set can be described thus: MTT viability assay, LLC cells. Here is the method: (§1) Lewis lung cancer (LLC) and A549 cells (100 µl) were plated at a concentration of 5 × 10^3 cells/well in a flat-bottomed 96-well plate on Day 0. […] Then, the culture medium was removed, and MTT (0.5 mg/ml) was added to each well and incubated for 4 h. The supernatant was discarded, and dimethyl sulfoxide (100 µl) was used to completely dissolve the crystals.

For data set [2], the system named is A549 cells. In words: MTT viability assay, A549 cells. Here is the method: as §1
The test system of data set [3] is LLC cells. The data set can be described thus: Live/dead assay (calcein-AM / EthD-1), LLC cells. It is filed as cell-based. The conditions noted are these: 6 μM, 72 h, calcein-AM/EthD-1, microscopy. The method, then: (§2) LLC cells and A549 cells (5,000 cells/well) were plated in 96-well plates and cultured for 24 h. Then, the cells were cocultured with 6 and 12 µM PEM and PEM-FFRGD for 72 h, respectively. The cells were washed with PBS and stained with calcein-AM and ethidium homodimer-1 (EthD-1) for 15 min. Then, the cells were viewed under microscopy (TI-S, Nikon, United States).

Data set [4] has as its system A549 cells. In words: Live/dead assay (calcein-AM / EthD-1), A549 cells. It is filed as cell-based. Conditions: 12 μM, 72 h, calcein-AM/EthD-1, microscopy. The method, then: as §2
The subject of a further data set is Lewis lung tumors. In words: In vivo antitumor efficacy in LLC tumor-bearing mice. The conditions noted are these: LLC subcutaneous tumors, i.v., 20 mg/kg, two injections, tumor volumes within 2 weeks, n = 5. Set-up: species or system C57BL/6J mice. The method, then:
(§3) C57BL/6J mice were subcutaneously inoculated with Lewis lung tumors and then randomly divided into four groups (5 mice per group) when the tumor sizes were approximately 100 mm^3. Mice in Groups 1 and 2 received PBS and FFRGD gels through i.v. injections, while mice in Groups 3 and 4 were administered 20 mg/kg PEM and PEM-FFRGD nanoparticles by i.v. injection. Repeated injections were administered on Days 1 and 5. Tumor size and body weight were monitored every 2 days, and the tumor volume was calculated according to the following formula: tumor volume (V, mm^3) = (tumor width)^2 × (tumor length)/2.

A short description of data set [5]: Body weight and serum TNFα, IL-6, ALT, AST in LLC tumor-bearing mice. It counts as in vivo, C57BL/6J mice. The conditions noted are these: for mouse weight: i.v., monitored every 2 days. Here is the method:
as §3

The mark [6] stands for this setting: LLC tumor-bearing mice, i.v. 20 mg/kg, n = 5.

In the case of `Nc1nc2[nH]cc(CCc3ccc(C(=O)N[C@@H](CCC(=O)O)C(=O)O)cc3)c2c(=O)[nH]1` [PEM, Pemetrexed], in the data set on LLC cells [1], the “cytotoxicity toward LLC cells, 24 h” value is reported as “no cytotoxicity”. Further, the “cytotoxicity toward A549 cells, 24 h” value in the data set on A549 cells [2] is reported as “no cytotoxicity”. Besides, in the data set with LLC cells [3], the “cell killing in live/dead staining, LLC cells” value is “could kill most cells”. Further, the “cell killing in live/dead staining, A549 cells” value in the data set on A549 cells [4] was “could kill most cells”. Moreover, the tumor growth result in the data set with Lewis lung tumors is “significantly inhibited”. Also, the mouse weight entry in data set [5] (LLC tumor-bearing mice, n = 5) is “no influence on mouse weight”.
As to `N=C(N)NCCC[C@H](NC(=O)[C@H](Cc1ccccc1)NC(=O)[C@H](Cc1ccccc1)NC(=O)C(CCC(=O)O)NC(=O)c1ccc(CCc2c[nH]c3nc(N)[nH]c(=O)c23)cc1)C(=O)NCC(=O)N[C@@H](CC(=O)O)C(=O)O` (some centres unmarked) [PEM-FFRGD] (X1-[ξE]FFRGD-OH), in the data set on LLC cells [1], the “cytotoxic activity toward LLC cells compared with PEM alone” value is listed as “stronger cytotoxic activity”; the “cytotoxicity toward LLC cells, 24 h” value is reported as “no cytotoxicity”; the “cytotoxicity toward LLC cells, 48 h” value is on record as “showed cytotoxic activity”. Moreover, the “cytotoxicity toward A549 cells, 24 h” value with A549 cells [2] (MTT, different concentrations, 24 h incubation) is given as “no cytotoxicity”. In addition, the “cytotoxicity toward A549 cells, 48 h” value with A549 cells [2] (MTT, different concentrations, 48 h incubation, viability lower than with PEM) is “showed cytotoxic activity”. For the same molecule, the “cytotoxic activity toward A549 cells compared with PEM alone” value with A549 cells [2] (MTT, series of concentrations, 72 h) is reported as “stronger cytotoxic activity”. In addition, in data set [5] (setting [6]), the “serum level of ALT versus PBS and PEM alone” value is on record as “not different”; the “serum level of AST versus PBS and PEM alone” value is recorded as “not different”; the “serum level of IL-6 versus PBS and PEM alone” value is “not different”; the “serum level of TNFα versus PBS and PEM alone” value is reported as “not different”. Besides, the “systemic toxicity in mice” value in data set [5] (from body weight and serum TNFα, IL-6, ALT, AST) was “no systemic toxicity”.
On to FFRGD [FFRGD, reference compound], for which the “cell toxicity at 100 μM (LLC cells)” value in the data set with LLC cells [1] (MTT, 100 μM, 72 h) is recorded as “did not display any distinct cell toxicity”. For the same molecule, the “cell toxicity at 100 μM (A549 cells)” value in the data set with A549 cells [2] (MTT, 100 μM, 72 h) is given as “did not display any distinct cell toxicity”. In data set [5] (LLC tumor-bearing mice, n = 5), the mouse weight result was “no influence on mouse weight”.
